Patent publication EP0298350A2, “Chiral 6-hydroxymethyl-3-amino-4,5-dihydroxy piperidines, their intermediates, processes for their preparation and their use” (BAYER AG, priority 1987, dated 1989)

Key:
[1] = system: Glukosidasen; conditions: known from Angew. Chem. 93, 738 (1981); cited from earlier work
[2] = system: Glykoproteinen; experiment: Effect on half-life of glycoproteins; conditions: qualitative statement, no value given
[3] = molecular target: α-N-Acetyl-galaktosaminidase; experiment: Inhibition of α-N-acetylgalactosaminidase; assay type: biochemical; conditions: α-N-Acetyl-galaktosaminidase aus Charonia lampas; read-out: IC₅₀
[4] = system: UDP-gal NAc: polypeptid-α-N-acetylgalaktosaminyl-transferase; experiment: Inhibition of polypeptide α-N-acetylgalactosaminyl transferase activity; assay type: biochemical; conditions: qualitative statement, no value given

Structure (SMILES) | Hemmwirkung auf Glukosidasen [1] | Halbwertszeit von Glykoproteinen [2] | IC50 [3] [nM] | Aktivität der UDP-gal NAc: polypeptid-α-N-acetylgalaktosaminyl-transferase [4]
OC[C@H]1NC[C@H](O)[C@@H](O)[C@@H]1O [1-Desoxynojirimycin] | Hemmwirkung | – | – | –
CC(=O)N[C@H]1CN[C@H](CO)[C@H](O)[C@@H]1O [If, 2-N-Acetyl-1,2,5-tridesoxy-1,5-imino-D-galaktit] | – | erhöht | 1400 | inhibiert
